According to PMC6424956, “A MALDI-TOF-based Method for Studying the Transport of BBB Shuttles—Enhancing Sensitivity and Versatility of Cell-Based In Vitro Transport Models” (Scientific Reports, 2019):
Where two headings read alike, the source gives them in different places. Numbered stars: 1 amine (or outer) side, 2 acyl side, 3 side chain; on linkers, the order of the positions; unused ones are H or OH. Square brackets hold non-standard residues; d marks the D form. Peptide text beside a SMILES is read from it. X1 = O=C([C@H]1[C@@H](c2ccccc2)CCN1[*:1])[*:2]; X2 = O=C([C@@H]1[C@H](c2ccccc2)CCN1[*:1])[*:2]; dAla(4-thiazolyl) = N[C@H](Cc1cscn1)C(=O)O; Tic(7-OH) = O=C(O)[C@@H]1Cc2ccc(O)cc2CN1; Phe(4-NH2) = Nc1ccc(C[C@H](N)C(=O)O)cc1; Phe(4-F) = N[C@@H](Cc1ccc(F)cc1)C(=O)O; hCha = N[C@@H](CCC1CCCCC1)C(=O)O

Assays:
[1] = system: in vitro bovine BBB cell-based model; assay: In vitro bovine BBB cell-based model transport assay; settings: for Transport (%) MALDI-TOF MS / Transport (%) RP-HPLC-PDA: 200 μM peptide in Ringer-HEPES, 2 h, 37 °C, mean ± SD, n = 3; for Transport (%) MALDI-TOF MS: quantified by MALDI-TOF MS with heavy internal standard; for Transport (%) RP-HPLC-PDA: quantified by RP-HPLC-PDA (220 nm), some values approximate (below LOQ); for Increase in transport compared to the parent peptide (1 L): bovine BBB model, MALDI-TOF MS quantification, transport normalized by parent peptide 1 L
Experimental: (§1) Peptides were evaluated through an in vitro bovine BBB cell-based model (Fig. 2a). Transport (T) and permeability (Papp) for all peptides were quantified by RP-HPLC-PDA and by MALDI-TOF MS (Fig. 2). The former method determined transport by applying the ratio between the peak areas integrated in the chromatograms from the acceptor and donor wells, further corrected by the volumes injected and the volumes contained in each well (see Eq. 1). The latter entails the spiking of the heavy version of the peptide as internal standard into an aliquot of the light peptide (Fig. 2b). The MS intensity for light/heavy ratios for acceptor and donor wells is representative of the relative amount of peptide in each well when corrected by their volume (detailed in Eq. 2).1 T=QAI(t)/QDI(t0)×VDI/VAI×VAW/VDW×100(%) where QAI(t) and QDI(t0) account for the integrated area in the HPLC chromatograms of acceptor (at time t = 2 h) and donor (at time t0 = 0) wells, respectively; VDI and VAI are the injected volumes from donor and acceptor wells, respectively; and VAW and VDW are the volumes in each acceptor and donor well, respectively.2 T=QALight(t)/Q^Heavy/QDLight(t0)/(R×Q^Heavy)×VAW/VDW×100(%) QALight(t)/Q^Heavy accounts for the relative amount of the light peptide in the acceptor well (at time t) compared with a prepared dilution of the heavy isomer (at 2 μM). QDLight(t0)/(R×Q^Heavy) determines the relative amount of light peptide in the donor well (at time t = 0) compared with a prepared dilution of the heavy isomer (at 200 μM; i.e. in our case R = 100).
(§2) In general, transport (see Eq. 3) can be described by the total amount of peptide in the acceptor well at time t, QA(t) , divided by the initial amount in the donor well, QD(t0) , while apparent permeability (Papp), widely used in the literature, normalizes transport by the transwell area, volume in donor well and time (see Eq. 4). […] In these cases, an approximate value was determined.
(§3) This assay was an adapted model[5] of the method previously published by Gaillard and de Boer[49]. Before performing the assay, TEER was measured in all transwells (TEER > 100 Ω·cm^2). […] The apical compartment was filled with 200 μL of the solution containing the peptide, and 800 µL of Ringer-HEPES was poured into the basal well. Three replicates of each peptide were assayed. The plate was left for 2 h in the incubator at 37 °C. Finally, the samples were collected and analyzed or frozen until analysis. LY fluorescence was measured in a 96-well plate with a Fluoroskan Ascent Microplate Fluorometer (Thermo Fisher Scientific). Two parameters were determined, namely transport (T (%)) and apparent permeability (Papp(cm/s)). RP-HPLC-PDA (220 nm) and MALDI-TOF MS were used to determine the amounts of peptide in each sample.
(§4) Transport was calculated using Eq. 2. […] Peak-picking and determination of peak area ratios was performed using Data Explorer version 4.5 (Applied Biosystems).

[2] = as above; settings: bovine, 200 μM peptide in Ringer-HEPES, 2 h, 37 °C, mean ± SD, n = 3
Experimental: as §1, §2, §3, §4

[3] = Parallel artificial membrane permeability assay (PAMPA); format: in vitro ADME; settings: pig, porcine brain polar lipid extract
Experimental: Passive diffusion was ruled out as the mechanism responsible for transport when the peptides (1 L, 6D, 7 − D and 8D) were assayed by PAMPA, an in vitro physico-chemical model where the transport by passive diffusion of compounds is evaluated through a membrane containing the lipid composition of interest (in our case, a porcine brain polar lipid extract (BPLE) to mimic the BBB lipid barrier). […] Note that when these values fall below 2.0 × 10^−6 cm/s compounds are considered to be poorly transported by passive diffusion.
The PAMPA assay was used to exclude passive diffusion capacity across the BBB. The standard parameter that quantifies transport independently of time and concentrations is effective permeability, Pe=−218.3/tLog(1−2CA(t)/CD(t0))×10^−6cm/s; where t is the running time (4 h), CA (t) is the concentration of the compound in the acceptor well at time t, and CD (t0) is the compound concentration in the donor well before running the PAMPA assay (t0 = 0 h). […] The protocol followed was the same as that previously used by Arranz-Gibert et al.[1]. Permeability is considered excellent with values >4.0 × 10^−6) cm/s, uncertain between 2.0 × 10^−6 and 4.0 × 10^−6 cm/s, and poor with values below 2.0 × 10^−6) cm/s[41].

[4] = Peptide stability in human serum; format: in vitro ADME; settings: for Protease resistance (in human serum): result in words
Experimental: Peptides were dissolved in 1 mL of HBSS buffer/human serum (from human male AB plasma; Sigma-Aldrich) 10:90 (v/v) at a final concentration of 200 µM and incubated at 37 °C for 24 h. Aliquots of 50 µL were extracted at a range of incubation times and treated with 200 µL of cold CH3OH (4 °C) to precipitate serum proteins. After 30 min, samples were centrifuged at 13,000 g and 4 °C for 30 min. Supernatants were analyzed by RP-HPLC-PDA and MALDI-TOF MS, using similar procedures as for the quantification of the in vitro cell-based BBB model.

[5] = system: in vitro human model of the BBB (brain-like endothelial cells from human cord blood-derived hematopoietic stem cells co-cultured with bovine pericytes); assay: In vitro human BBB cell-based model transport assay
Experimental: The aforementioned peptides were assayed as in the other BBB model using either Ringer-HEPES buffer (the one commonly used in these assays) or supplemented ECM medium. The use of medium in this assay allows (1) the extension of the incubation time and (2) the use of more similar conditions to those found physiologically.
Endothelial cells and pericytes were defrosted in gelatin-coated Petri dishes (Corning). Pericytes and endothelial cells were cultured in DMEM pH 6.8 or in supplemented endothelial cell growth medium (Sciencells), respectively. After 48 h, pericytes (50,000 cells/well) and endothelial cells (80,000 cells/well) were seeded in gelatin-coated 12-well plates or in Matrigel-coated 12-well Transwell inserts (Corning), respectively. Medium was changed every 2–3 days and assays were performed 7–8 days after seeding. […] LY fluorescence was measured in a 96-well plate with a Fluoroskan Ascent Microplate Fluorometer (Thermo Fisher Scientific). Compounds were dissolved in Ringer-HEPES at a concentration of 200 µM. Then, 500 µL of the compound and 1,500 µL of Ringer-HEPES alone were introduced in the apical or in the basolateral compartments, respectively. The plates were set on at 37 °C for 2 h. The solutions from both compartments were then recovered and quantified by HPLC and identified by MALDI-TOF.

[6] = Papp MALDI-TOF MS, quantified by MALDI-TOF MS with heavy internal standard
[7] = Papp RP-HPLC-PDA, quantified by RP-HPLC-PDA (220 nm)
[8] = 4 h, n = 3, values are Pe · 10^6, read-out: Pe · 10^6 (effective permeability)
[9] = read-out: Permeability values (PAMPA), bound in the text

Transport (%) MALDI-TOF MS [1] [%] | Transport (%) RP-HPLC-PDA [1] [%] | Papp at 2 h, 200 μM [2, 6] [×10⁻⁶ cm/s] | Papp at 2 h, 200 μM [2, 7] [×10⁻⁶ cm/s] | Compound | Papp at 4 h [3, 8] [×10⁻⁶ cm/s] | Papp at 4 h [3, 9] [×10⁻⁶ cm/s] | half-life at 200 µM ([4]; male, HBSS buffer/human serum 10:90 (v/v), 200 µM, 37 °C, 24 h, non-linear regression, read-out: t1/2 in human serum (converted)) [h] | Increase in transport compared to the parent peptide (1 L) [1] | Protease resistance (in human serum) [4] | Transport relative to the parent peptide 1 L (HAI), buffer ([5]; human BBB model, Ringer-HEPES buffer) | Transport relative to the parent peptide 1 L (HAI), medium ([5]; human BBB model, supplemented ECM medium) | Papp of Lucifer yellow (control) ([1]; 20 μM Lucifer yellow lithium salt as control in Ringer-HEPES) | Papp of Lucifer Yellow (internal control) ([5]; 50 µM Lucifer Yellow as internal control)
3.4 ± 0.7 | 3.9 ± 0.9 | 2.8 ± 0.6 | 3.3 ± 0.7 | CC(=O)N[C@@H](Cc1c[nH]cn1)C(=O)N[C@@H](C)C(=O)N[C@@H](CCC1CCCCC1)C(=O)N[C@@H](Cc1ccc(O)cc1)C(=O)N1CCC[C@H]1C(=O)N[C@@H](CCCNC(=N)N)C(=O)N[C@@H](Cc1c[nH]cn1)C(N)=O [Peptide 2L, Ac-HAxYPRH-NH2] (Ac-HA[hCha]YPRH-NH2) | – | – | – | – | – | – | – | – | –
2.9 ± 1.2 | 4.4 ± 0.5 | 2.4 ± 1 | 3.7 ± 0.4 | CC[C@@H](C)[C@@H](NC(=O)[C@@H](Cc1ccc(O)cc1)NC(=O)[C@H]1CCCN1C(=O)[C@@H](CCCNC(=N)N)NC(=O)[C@@H](Cc1cscn1)NC(C)=O)C(=O)N[C@H](C)C(=O)N[C@H](Cc1c[nH]cn1)C(N)=O [Peptide 9D, Ac-xrpyiah-NH2] (Ac-[dAla(4-thiazolyl)][dR][dP][dY][dI][dA][dH]-NH2) | – | – | – | – | – | – | – | – | –
2.5 ± 1.2 | 2.0 ± 0.8 | 2.1 ± 1 | 1.7 ± 0.6 | CC[C@H](C)[C@H](NC(=O)[C@H](C)NC(=O)[C@H](Cc1c[nH]cn1)NC(C)=O)C(=O)N1Cc2cc(O)ccc2C[C@H]1C(=O)N1CCC[C@H]1C(=O)N[C@@H](CCCNC(=N)N)C(=O)N[C@@H](Cc1c[nH]cn1)C(N)=O [Peptide 3L, Ac-HAIxPRH-NH2] (Ac-HAI[Tic(7-OH)]PRH-NH2) | – | – | – | – | – | – | – | – | –
2.1 ± 0.5 | 2.0 ± 0.9 | 1.8 ± 0.4 | 1.6 ± 0.8 | CC[C@H](C)[C@H](NC(=O)[C@H](C)NC(=O)[C@H](Cc1c[nH]cn1)NC(C)=O)C(=O)N[C@@H](Cc1ccc(N)cc1)C(=O)N1CCC[C@H]1C(=O)N[C@@H](CCCNC(=N)N)C(=O)N[C@@H](Cc1c[nH]cn1)C(N)=O [Peptide 4L, Ac-HAIxPRH-NH2] (Ac-HAI[Phe(4-NH2)]PRH-NH2) | – | – | – | – | – | – | – | – | –
7 ± 2 | 6.8 ± 1.2 | 5.7 ± 1.9 | 5.7 ± 1 | CC[C@@H](C)[C@@H](NC(=O)[C@@H](Cc1ccc(O)cc1)NC(=O)[C@@H]1[C@H](c2ccccc2)CCN1C(=O)[C@@H](CCCNC(=N)N)NC(=O)[C@@H](Cc1c[nH]cn1)NC(C)=O)C(=O)N[C@H](C)C(=O)N[C@H](Cc1c[nH]cn1)C(N)=O [7+D, Ac-hrxyiah-NH2] (Ac-[dH][dR][X2][dY][dI][dA][dH]-NH2) | – | – | – | two-fold | – | – | – | – | –
– | – | – | – | Lucifer yellow (LY) lithium salt [reference compound] | – | – | – | – | – | – | – | < 17 ·10^−6 cm/s | < 15 ·10^−6 cm/s
3.1 ± 1.6 | 3.4 ± 1.6 | 2.6 ± 1.3 | 2.9 ± 1.3 | CC[C@H](C)[C@H](NC(=O)[C@H](C)NC(=O)[C@H](Cc1c[nH]cn1)NC(C)=O)C(=O)N[C@@H](Cc1ccc(F)cc1)C(=O)N1CCC[C@H]1C(=O)N[C@@H](CCCNC(=N)N)C(=O)N[C@@H](Cc1c[nH]cn1)C(N)=O [Peptide 5L, Ac-HAIxPRH-NH2] (Ac-HAI[Phe(4-F)]PRH-NH2) | – | – | – | – | – | – | – | – | –

Compound | Transport (%) MALDI-TOF MS [1] [%] | Transport (%) RP-HPLC-PDA [1] [%] | Papp at 2 h, 200 μM [2, 6] [×10⁻⁶ cm/s] | Papp at 2 h, 200 μM [2, 7] [×10⁻⁶ cm/s] | Papp at 4 h [3, 8] [×10⁻⁶ cm/s] | Papp at 4 h [3, 9] [×10⁻⁶ cm/s] | half-life at 200 µM ([4]; male, HBSS buffer/human serum 10:90 (v/v), 200 µM, 37 °C, 24 h, non-linear regression, read-out: t1/2 in human serum (converted)) [h] | Increase in transport compared to the parent peptide (1 L) [1] | Protease resistance (in human serum) [4] | Transport relative to the parent peptide 1 L (HAI), buffer ([5]; human BBB model, Ringer-HEPES buffer) | Transport relative to the parent peptide 1 L (HAI), medium ([5]; human BBB model, supplemented ECM medium) | Papp of Lucifer yellow (control) ([1]; 20 μM Lucifer yellow lithium salt as control in Ringer-HEPES) | Papp of Lucifer Yellow (internal control) ([5]; 50 µM Lucifer Yellow as internal control)
CC[C@@H](C)[C@@H](NC(=O)[C@@H](Cc1ccc(O)cc1)NC(=O)[C@H]1CCCN1C(=O)[C@@H](CCCNC(=N)N)NC(=O)[C@@H](Cc1c[nH]cn1)NC(C)=O)C(=O)N[C@H](C)C(=O)N[C@H](Cc1c[nH]cn1)C(N)=O [Peptide 6D, Ac-hrpyiah-NH2] | 3.1 ± 0.9 | 5.3 ± 1.8 | 2.6 ± 0.7 | 4.5 ± 1.5 | 0.34 | < 0.4 | – | – | – | – | – | – | –
CC[C@H](C)[C@H](NC(=O)[C@H](C)NC(=O)[C@H](Cc1c[nH]cn1)NC(C)=O)C(=O)N[C@@H](Cc1ccc(O)cc1)C(=O)N1CCC[C@H]1C(=O)N[C@@H](CCCNC(=N)N)C(=O)N[C@@H](Cc1c[nH]cn1)C(N)=O [Peptide 1L, Ac-HAIYPRH-NH2] | 3.8 ± 1.4 | 2.9 ± 1.4 | 3.2 ± 1.2 | 2.5 ± 1.1 | 0.18 | < 0.4 | 3.3 | – | – | – | – | – | –
CC[C@@H](C)[C@@H](NC(=O)[C@@H](Cc1ccc(O)cc1)NC(=O)[C@H]1[C@@H](c2ccccc2)CCN1C(=O)[C@@H](CCCNC(=N)N)NC(=O)[C@@H](Cc1c[nH]cn1)NC(C)=O)C(=O)N[C@H](C)C(=O)N[C@H](Cc1c[nH]cn1)C(N)=O [Peptide 7-D, Ac-hrxyiah-NH2] (Ac-[dH][dR][X1][dY][dI][dA][dH]-NH2) | 7 ± 3 | 5.7 ± 1.8 | 6 ± 2 | 4.8 ± 1.5 | 0.33 | < 0.4 | – | two-fold | high resistance to protease degradation | around 1.5 fold | eight- | – | –
CC[C@@H](C)[C@@H](NC(=O)[C@@H](Cc1ccc(O)cc1)NC(=O)[C@H]1CCCCN1C(=O)[C@@H](CCCNC(=N)N)NC(=O)[C@@H](Cc1c[nH]cn1)NC(C)=O)C(=O)N[C@H](C)C(=O)N[C@H](Cc1c[nH]cn1)C(N)=O [Peptide 8D, Ac-hrxyiah-NH2] | 7.5 ± 1.0 | 7.2 ± 0.9 | 6.3 ± 0.8 | 6.1 ± 0.8 | 0.34 | < 0.4 | – | two-fold | high resistance to protease degradation | – | – | – | –
